# Values quoted from earlier work as cited in patent US20040097717A1, “Control of aerial branching” (priority 2000, published 2004).
# Key:
# Phaseolus vulgaris = settings: decapitated Phaseolus vulgaris, IAA application (Knox and Wareing, 1984)
# lateral buds = settings: exogenous application to lateral buds (Tames et al., 1979)
Compound,lateral bud elongation / decrease in ABA level after decapitation (Phaseolus vulgaris),lateral bud elongation (lateral buds)
O=C(O)Cc1c[nH]c2ccccc12 [IAA],reversed,
"CC1=CC(=O)CC(C)(C)[C@@]1(O)/C=C/C(C)=C\C(=O)O [ABA, abscisic acid]",,inhibited elongation
